{"source": "patent US12545735B2", "about": "“Anti-met antibodies, bispecific antigen binding molecules that bind met, and methods of use thereof” (REGENERON PHARMACEUTICALS, INC., priority 2016, dated 2026)", "format_in_all_cases": "cell-based, human", "key": {"A549 cells [1]": {"tested_on": "A549 cells", "assay": "3-day in vitro cytotoxicity assay (nuclear counts)", "conditions": "3-day treatment", "experimental": "(§1) To determine the relative cell-killing potency of anti-MET antibody drug conjugates (ADCs) described herein, cell-killing assays were run on multiple cells lines expressing varying levels of endogenous MET.\n(§2) To measure in vitro cytotoxicity of anti-MET ADCs, nuclear counts after a 3 or 6-day treatment with the ADCs was assessed. […] For cell viability curves, serially diluted ADCs, unconjugated antibodies, or free payloads were added to the cells at final concentrations ranging from 100 nM to 0.01 nM (based on toxin concentration) and incubated for 3 or 6 days at 37° C. in 5% CO2. Cells were subsequently treated with 3 ug/ml Hoechst 33342 nuclear stain (Invitrogen, #H3570) while being fixed with 4% formaldehyde. Images were acquired on the ImageXpress micro XL (Molecular Devices, Sunnyvale, Calif.) and nuclear counts were determined via MetaXpress image analysis software (Molecular Devices, Sunnyvale, Calif.). Background nuclear counts from cells treated with […] digitonin were subtracted from all wells and viability was expressed as a percentage of the untreated controls. IC50 values were determined from a four-parameter logistic equation over a 10-point response curve (GraphPad Prism). The untreated condition for each dose-response curve is also included in the analysis and is represented as the lowest dose."}, "U87MG cells": {"tested_on": "U87MG cells", "assay": "3-day in vitro cytotoxicity assay (nuclear counts)", "conditions": "3-day treatment", "experimental": "as §1, §2"}, "J.RT3 cells": {"tested_on": "J.RT3 cells", "assay": "3-day in vitro cytotoxicity assay (nuclear counts)", "conditions": "3-day treatment", "experimental": "as §1, §2"}, "MDA-MB-231 cells": {"tested_on": "MDA-MB-231 cells", "assay": "3-day in vitro cytotoxicity assay (nuclear counts)", "conditions": "3-day treatment", "experimental": "as §1, §2"}, "Hs746T cells [2]": {"tested_on": "Hs746T cells", "assay": "3-day in vitro cytotoxicity assay (nuclear counts)", "conditions": "3-day treatment", "experimental": "as §1, §2"}, "HEK293 cells": {"tested_on": "HEK293 cells", "assay": "3-day in vitro cytotoxicity assay (nuclear counts)", "conditions": "3-day treatment", "experimental": "as §1, §2"}, "T47D cells [3]": {"tested_on": "T47D cells", "assay": "3-day in vitro cytotoxicity assay (nuclear counts)", "conditions": "3-day treatment", "experimental": "as §1, §2"}, "[4]": {"tested_on": "MET pathway in NCI-H596 cells", "assay": "Immunoblot of MET and ERK phosphorylation, time course", "conditions": "HGF 50 ng/ml", "experimental": "250,000 NCI-H596 cells were seeded in a 12 well plate and cultured in RPMI Media supplemented with 10% FBS. […] The cells were subsequently incubated in 5% CO2 at 37° C. After 0, 2, 6 or 18 hours, cell lysates were prepared, protein content was normalized and immunoblot analysis was performed. MET phosphorylation and ERK phosphorylation were quantified with the ImageJ image processing program (T. Collins, BioTechniques 43: S25-S30, 2007). Phosphorylation levels were normalized to the Tubulin loading control and are expressed as fold change relative to control treatment."}, "[5]": {"tested_on": "MET (c-Met) in HEK293/SRE-Luc cells", "assay": "SRE-luciferase reporter bioassay, ligand (HGF)-independent MET activation", "conditions": "antibody alone at various concentrations; result in words", "description": "(§3) The ability of anti-MET antibodies to block hepatocyte growth factor (HGF)-mediated MET activation was examined in a luciferase-based reporter assay. The growth factor HGF binds to the extracellular domain of its receptor c-Met (MET), triggering rapid homodimerization and activating several downstream signaling cascades. The anti-MET antibodies tested in this example were bivalent monospecific binders of MET, or anti-MET “bispecifics”, in which each arm of the bispecific antibody bound to a different and distinct epitope on MET. […]\n(§4) Next, 2.0×10^5 HEK293/SRE-Luc cells were seeded in luciferase assay media in 96 well plates and incubated overnight at 37° C. in 5% CO2. […] Separately, the ability of the antibodies to activate c-Met in the absence of ligand was also assessed.\n(§5) Luciferase activity was detected using the ONE-Glo™ Luciferase Assay System (Promega, Madison, Wis.), and emitted light was measured on a Victor or Envision luminometer (Perkin Elmer, Shelton, Conn.) and expressed as relative light units (RLUs). EC50/IC50 values were determined from a four-parameter logistic equation over a 12-point response curve using […] […]"}, "[6]": {"tested_on": "MET (c-Met) in HEK293/SRE-Luc cells", "assay": "SRE-luciferase reporter bioassay, blocking of HGF-mediated MET activation", "conditions": "antibodies plus HGF ligand; result in words", "description": "as §3, §4, §5"}, "EBC-1 cells [7]": {"tested_on": "EBC-1 cells", "assay": "3-day in vitro cytotoxicity assay (nuclear counts)", "conditions": "3-day treatment", "experimental": "as §1, §2"}, "MKN-45 cells": {"tested_on": "MKN-45 cells", "assay": "3-day in vitro cytotoxicity assay (nuclear counts)", "conditions": "3-day treatment", "experimental": "as §1, §2"}, "SNU-5 cells": {"tested_on": "SNU-5 cells", "assay": "3-day in vitro cytotoxicity assay (nuclear counts)", "conditions": "3-day treatment", "experimental": "as §1, §2"}, "NCI-H1993 cells": {"tested_on": "NCI-H1993 cells", "assay": "3-day in vitro cytotoxicity assay (nuclear counts)", "conditions": "3-day treatment", "experimental": "as §1, §2"}, "A549 cells [8]": {"tested_on": "A549 cells", "assay": "6-day in vitro cytotoxicity assay (nuclear counts)", "conditions": "6-day treatment", "experimental": "as §1, §2"}, "EBC-1 cells [9]": {"tested_on": "EBC-1 cells", "assay": "6-day in vitro cytotoxicity assay (nuclear counts)", "conditions": "6-day treatment", "experimental": "as §1, §2"}, "Hs746T cells [10]": {"tested_on": "Hs746T cells", "assay": "6-day in vitro cytotoxicity assay (nuclear counts)", "conditions": "6-day treatment", "experimental": "as §1, §2"}, "T47D cells [11]": {"tested_on": "T47D cells", "assay": "6-day in vitro cytotoxicity assay (nuclear counts)", "conditions": "6-day treatment", "experimental": "as §1, §2"}}}
{"compound": "COc1cc2cc(c1Cl)N(C)C(=O)CC(OC(=O)C(C)N(C)C(=O)CCS)C1(C)OC1C(C)C1CC(O)(NC(=O)O1)C(OC)C=CC=C(C)C2", "note": "(centres unmarked) [DM1 (free drug)]", "values": [{"measurement": "IC50", "setting": "A549 cells [1]", "value": 2.56, "unit": "nM"}, {"measurement": "Max % Kill", "setting": "A549 cells [1]", "value": 97, "unit": "%"}, {"measurement": "IC50", "setting": "U87MG cells", "value": 0.61, "unit": "nM"}, {"measurement": "Max % Kill", "setting": "U87MG cells", "value": 89, "unit": "%"}, {"measurement": "IC50", "setting": "J.RT3 cells", "value": 0.07, "unit": "nM"}, {"measurement": "Max % Kill", "setting": "J.RT3 cells", "value": 100, "unit": "%"}, {"measurement": "IC50", "setting": "MDA-MB-231 cells", "value": 1.53, "unit": "nM"}, {"measurement": "Max % Kill", "setting": "MDA-MB-231 cells", "value": 89, "unit": "%"}, {"measurement": "IC50", "setting": "Hs746T cells [2]", "value": 1.46, "unit": "nM"}, {"measurement": "Max % Kill", "setting": "Hs746T cells [2]", "value": 81, "unit": "%"}, {"measurement": "IC50", "setting": "HEK293 cells", "value": 0.15, "unit": "nM"}, {"measurement": "Max % Kill", "setting": "HEK293 cells", "value": 95, "unit": "%"}, {"measurement": "IC50", "setting": "T47D cells [3]", "value": 1.33, "unit": "nM"}, {"measurement": "Max % Kill", "setting": "T47D cells [3]", "value": 91, "unit": "%"}]}
{"compound": "HGF: hepatocyte growth factor, the MET ligand / MET-agonist [reference compound]", "values": [{"measurement": "time of peak activation of MET and ERK", "setting": "[4]", "value": 2, "unit": "h"}]}
{"compound": "monovalent anti-MET antibody: monovalent MET antibody generated using the heavy and light chain variable sequences of MetMab (U.S. Pat. No. 7,892,550 B2) [reference compound]", "values": [{"measurement": "MET agonist activity in the absence of HGF ligand (SRE-luciferase, FIG. 3A, FIG. 4A)", "setting": "[5]", "value": "neither the monovalent nor the MET×MET bispecific antibody showed MET agonist activity"}, {"measurement": "blocking of HGF-dependent MET activation (SRE-luciferase, FIG. 3B, FIG. 4B)", "setting": "[6]", "value": "showed greater HGF blocking"}]}
{"compound": "COc1cc2cc(c1Cl)N(C)C(=O)CC(OC(=O)C(C)N(C)C(=O)CCSSC)C1(C)OC1C(C)C1CC(O)(NC(=O)O1)C(OC)C=CC=C(C)C2", "note": "(centres unmarked) [DM1 (MeS-DM1)]", "values": [{"measurement": "IC50", "setting": "EBC-1 cells [7]", "value": 2.22, "unit": "nM"}, {"measurement": "Max % Kill", "setting": "EBC-1 cells [7]", "value": 90, "unit": "%"}, {"measurement": "IC50", "setting": "MKN-45 cells", "value": 2.73, "unit": "nM"}, {"measurement": "Max % Kill", "setting": "MKN-45 cells", "value": 85, "unit": "%"}, {"measurement": "IC50", "setting": "SNU-5 cells", "value": 1.22, "unit": "nM"}, {"measurement": "Max % Kill", "setting": "SNU-5 cells", "value": 99, "unit": "%"}, {"measurement": "IC50", "setting": "NCI-H1993 cells", "value": 2.86, "unit": "nM"}, {"measurement": "Max % Kill", "setting": "NCI-H1993 cells", "value": 81, "unit": "%"}, {"measurement": "IC50", "setting": "A549 cells [8]", "value": 0.49, "unit": "nM"}, {"measurement": "Max % Kill", "setting": "A549 cells [8]", "value": 90, "unit": "%"}, {"measurement": "IC50", "setting": "EBC-1 cells [9]", "value": 0.12, "unit": "nM"}, {"measurement": "Max % Kill", "setting": "EBC-1 cells [9]", "value": 62, "unit": "%"}, {"measurement": "IC50", "setting": "Hs746T cells [10]", "value": 1.39, "unit": "nM"}, {"measurement": "Max % Kill", "setting": "Hs746T cells [10]", "value": 88, "unit": "%"}, {"measurement": "IC50", "setting": "T47D cells [11]", "value": 0.24, "unit": "nM"}, {"measurement": "Max % Kill", "setting": "T47D cells [11]", "value": 96, "unit": "%"}]}
{"compound": "CNCCC(=O)N(C)C(C)C(=O)OC1CC(=O)N(C)c2cc(cc(OC)c2Cl)CC(C)=CC=CC(OC)C2(O)CC(OC(=O)N2)C(C)C2OC12C", "note": "(centres unmarked) [M24 (Maytansinoid B released payload)]", "values": [{"measurement": "IC50", "setting": "A549 cells [8]", "value": "> 100", "unit": "nM"}, {"measurement": "Max % Kill", "setting": "A549 cells [8]", "value": 10, "unit": "%"}, {"measurement": "IC50", "setting": "EBC-1 cells [9]", "value": "> 100", "unit": "nM"}, {"measurement": "Max % Kill", "setting": "EBC-1 cells [9]", "value": 32, "unit": "%"}, {"measurement": "IC50", "setting": "Hs746T cells [10]", "value": "> 100", "unit": "nM"}, {"measurement": "Max % Kill", "setting": "Hs746T cells [10]", "value": 10, "unit": "%"}, {"measurement": "IC50", "setting": "T47D cells [11]", "value": "> 100", "unit": "nM"}, {"measurement": "Max % Kill", "setting": "T47D cells [11]", "value": 0, "unit": "%"}]}
